Source: patent US20260007634A1, “PHARMACEUTICAL COMPOSITIONS FOR THE TREATMENT OF ALLERGIC DISEASES” (KINKI UNIVERSITY, priority 2022, published 2026)

Tests used:
Format in all cases: in vivo, mouse
OVA-IgE antibody [1] = assay: Serum OVA-IgE antibody ELISA, allergic rhinitis mice; details: serum day 28, oral 10 mg/kg (dexamethasone 2 mg/kg), control 2.7, vehicle 69
Protocol: (§1) A 0.2 mL dose of 50 μg ovalbumin (OVA) and 2 mg Alum mixture was administered to 6-week-old female Balb/c mice (Japan SLC Inc.) (day 0 of the example). Alum was used as an adjuvant. Seven days later and 14 days later, the Balb/c mice were immunized again with 0.2 mL injections of the above mixture. Starting on day 20, mice were orally treated with 10 mg/kg of norathyriol, 10 mg/kg of mangiferin 8a, 10 mg/kg of tofacitinib (JAK inhibitor), 2 mg/kg of dexamethasone (steroid) and 10 mg/kg of olopatadine (antihistamine) daily for 8 consecutive days. Starting on day 21, 400 μg OVA was administered intranasally, and nose-scratching behavior was measured on day 27. Note that tofacitinib, dexamethasone, and olopatadine are currently in clinical use in allergic rhinitis and were used as control drugs in this example.
Serum was collected from day 28 mice in Examples 6 and 7, and OVA-IgE antibody production was measured by enzyme-linked immunosorbent assay (ELISA). This assay was performed using a mouse OVA-IgE antibody ELISA kit (FUJIFILM Wako).

OVA-IgE antibody [2] = assay: Serum OVA-IgE antibody ELISA, bronchial asthma mice; details: serum day 28, oral 10 mg/kg (dexamethasone 2 mg/kg), control 2.4, vehicle 66
Protocol: as §1, with “cough” for “nose-scratching behavior”
Serum was collected from day 28 mice in Examples 14, and OVA-IgE antibody production was measured by enzyme-linked immunosorbent assay (ELISA). This assay was performed using a mouse OVA-IgE antibody ELISAkit (FUJIFILM Wako).

BAFF [3] = assay: Serum BAFF ELISA, bronchial asthma mice; details: OVA bronchial asthma; serum day 28; oral 10 mg/kg (dexamethasone 2 mg/kg); control 97, vehicle 1319
Protocol: as §1, with “cough” for “nose-scratching behavior”, “Note that tofacitinib, dexamethasone, and olopatadine are currently in clinical use in allergic rhinitis and were used as control drugs in this example.” left out
Serum was collected from day 28 mice in Examples 14, and BAFF production was measured by enzyme-linked immunosorbent assay (ELISA). This assay was performed using a mouse BAFF ELISA kit (R&D).

BAFF [4] = assay: Serum BAFF ELISA, food allergy mice; details: OVA food allergy; serum day 28; oral 10 mg/kg (dexamethasone 2 mg/kg); control 134, vehicle 845
Protocol: A 0.2 mL dose of 10 μg ovalbumin (OVA) and 1 mg Alum mixture was administered to 6-week-old female Balb/c mice (Japan SLC Inc.) (day 0 of the example). Alum was used as an adjuvant. Seven days later, the Balb/c mice were immunized again with a 0.2 mL injection of the above mixture. Starting on day 14, mice were orally treated with 10 mg/kg of norathyriol, 10 mg/kg of mangiferin 8a, 10 mg/kg of tofacitinib (JAK inhibitor), 2 mg/kg of dexamethasone (steroid) and 10 mg/kg of olopatadine (antihistamine) daily for 14 consecutive days. Starting on day 14, 10 mg OVA was administered orally every other day […], and the frequency of diarrhea was measured after the final administration on day 28. Note that tofacitinib, dexamethasone, and olopatadine are currently in clinical use in food allergy and were used as control drugs in this example.
Serum was collected from day 28 mice in Examples 21, and BAFF production was measured by enzyme-linked immunosorbent assay (ELISA). This assay was performed using a mouse BAFF ELISA kit (R&D).

IL-5 = assay: Serum IL-5 ELISA, food allergy mice; details: OVA food allergy; serum day 28; oral 10 mg/kg (dexamethasone 2 mg/kg); control 135, vehicle 916
Protocol: A 0.2 mL dose of 10 μg ovalbumin (OVA) and 1 mg Alum mixture was administered to 6-week-old female Balb/c mice (Japan SLC Inc.) (day 0 of the example). Alum was used as an adjuvant. Seven days later, the Balb/c mice were immunized again with a 0.2 mL injection of the above mixture. Starting on day 14, mice were orally treated with 10 mg/kg of norathyriol, 10 mg/kg of mangiferin 8a, 10 mg/kg of tofacitinib (JAK inhibitor), 2 mg/kg of dexamethasone (steroid) and 10 mg/kg of olopatadine (antihistamine) daily for 14 consecutive days. […]
Serum was collected from day 28 mice in Examples 21, and IL-5 production was measured by enzyme-linked immunosorbent assay (ELISA). This assay was performed using a mouse IL-5 ELISA kit (R&D).

[5] = system: Balb/c mice with cedar pollinosis; assay: Sneezing, cedar pollinosis model mice; details: oral daily 8 days from day 20, 10 mg/kg (dexamethasone 2 mg/kg), measured day 27, vs vehicle group
Protocol: A 0.2 mL dose of 100 μg cedar pollen and 1 mg Alum mixture was administered to 6-week-old female Balb/c mice (Japan SLC Inc.) (day 0 of the example). Alum was used as an adjuvant. Seven days later and 14 days later, the Balb/c mice were immunized again with 0.2 mL injections of the above mixture. Starting on day 20, mice were orally treated with 10 mg/kg of norathyriol, 10 mg/kg of mangiferin 8a, 10 mg/kg of tofacitinib (JAK inhibitor), 2 mg/kg of dexamethasone (steroid) and 10 mg/kg of olopatadine (antihistamine) daily for 8 consecutive days. Starting on day 21, 500 μg cedar pollen was administered intranasally, and sneezing was measured on day 27. Note that tofacitinib, dexamethasone, and olopatadine are currently in clinical use in cedar pollinosis and were used as control drugs in this example.
The group that was just immunized with cedar pollen is called the subject group, the one that received norathyriol is called the norathyriol group, the one that received mangiferin 8a is called the mangiferin 8a group, the one that received tofacitinib is called the tofacitinib group, the one that received dexamethasone is called the dexamethasone group, and the one that received olopatadine is called the olopatadine group. Each group consisted of five animals.

SMILES	amount of OVA-IgE antibody (OVA-IgE antibody [1])	amount of OVA-IgE antibody (OVA-IgE antibody [2])	amount of BAFF (BAFF [3])	amount of BAFF (BAFF [4])	amount of IL-5 (IL-5)	number of sneezing [5]
C[C@@H]1C[C@H]2[C@@H]3CCC4=CC(=O)C=C[C@]4(C)[C@@]3(F)[C@@H](O)C[C@]2(C)[C@@]1(O)C(=O)CO [dexamethasone]	18 U/mL	18 U/mL	321 pg/mL	251 pg/mL	249 pg/mL	–
O=c1c2cc(O)c(O)cc2oc2cc(O)cc(O)c12 [norathyriol, 1,3,6,7-tetrahydroxyxanthone]	36 U/mL	28 U/mL	649 pg/mL	426 pg/mL	475 pg/mL	significantly decreased the number of sneezing
CN(C)CC/C=C1/c2ccccc2COc2ccc(CC(=O)O)cc21 [olopatadine]	67 U/mL	69 U/mL	1304 pg/mL	715 pg/mL	832 pg/mL	significantly decreased the number of sneezing
C[C@@H]1CCN(C(=O)CC#N)C[C@@H]1N(C)c1ncnc2[nH]ccc12 [tofacitinib]	50 U/mL	50 U/mL	902 pg/mL	598 pg/mL	791 pg/mL	significantly decreased the number of sneezing
